# From article PMC11012124, “Synthesis of Novel Triazine-Based Chalcones and 8,9-dihydro-7H-pyrimido[4,5-b][1,4]diazepines as Potential Leads in the Search of Anticancer, Antibacterial and Antifungal Agents” (International Journal of Molecular Sciences, 2024)
# How the values were obtained:
# [1] = test system: CCRF-CEM; experiment: cells; conditions: Homo sapiens, 48 h; for CC50: read-out: LC50
# [2] = test system: HT29; experiment: cells; conditions: Homo sapiens, HT-29, 48 h; for CC50: read-out: LC50
# [3] = test system: HOP-92; experiment: cells; conditions: Homo sapiens, HOP-92, 48 h; for CC50: read-out: LC50
# [4] = test system: 786-0; experiment: cells; conditions: Homo sapiens, 786-0, 48 h; for CC50: read-out: LC50
# [5] = test system: HCT-15; experiment: cells; conditions: Homo sapiens, HCT-15, 48 h; for CC50: read-out: LC50
# [6] = test system: T-47D; experiment: cells; conditions: Homo sapiens, T47D, 48 h; for CC50: read-out: LC50
# [7] = test system: SF-295; experiment: cells; conditions: Homo sapiens, SF-295, 48 h; for CC50: read-out: LC50
# [8] = test system: SK-MEL-2; experiment: cells; conditions: Homo sapiens, SK-MEL-2, 48 h; for CC50: read-out: LC50
# [9] = test system: COLO 205; experiment: cells; conditions: Homo sapiens, COLO 205, 48 h; for CC50: read-out: LC50
# [10] = test system: ACHN; experiment: cells; conditions: Homo sapiens, 48 h; for CC50: read-out: LC50
# [11] = test system: A549/ATCC; experiment: cells; conditions: Homo sapiens, A549, 48 h; for CC50: read-out: LC50
# [12] = test system: MALME-3M; experiment: cells; conditions: Homo sapiens, 48 h
# [13] = test system: SK-MEL-28; experiment: cells; conditions: Homo sapiens, SK-MEL-28, 48 h; for CC50: read-out: LC50
# [14] = test system: SK-OV-3; experiment: cells; conditions: Homo sapiens, SK-OV-3, 48 h; for CC50: read-out: LC50
# [15] = test system: IGROV1; experiment: cells; conditions: Homo sapiens, IGROV-1, 48 h; for CC50: read-out: LC50
# [16] = test system: PC-3; experiment: cells; conditions: Homo sapiens, PC-3, 48 h; for CC50: read-out: LC50
# [17] = test system: RXF 393; experiment: cells; conditions: Homo sapiens, RXF 393, 48 h
# [18] = test system: MDA-MB-231/ATCC; experiment: cells; conditions: Homo sapiens, MDA-MB-231, 48 h; for CC50: read-out: LC50
# [19] = test system: EKVX; experiment: cells; conditions: Homo sapiens, 48 h; for CC50: read-out: LC50
# [20] = test system: HOP-62; experiment: cells; conditions: Homo sapiens, HOP-62, 48 h; for CC50: read-out: LC50
# [21] = test system: HCC-2998; experiment: cells; conditions: Homo sapiens, HCC 2998, 48 h; for CC50: read-out: LC50
# [22] = test system: UO-31; experiment: cells; conditions: Homo sapiens, UO-31, 48 h; for CC50: read-out: LC50
# [23] = test system: SK-MEL-5; experiment: cells; conditions: Homo sapiens, SK-MEL-5, 48 h; for CC50: read-out: LC50
# [24] = test system: LOX IMVI; experiment: cells; conditions: Homo sapiens, 48 h; for CC50: read-out: LC50, LOX IMVI, 48 h
# [25] = test system: A498; experiment: cells; conditions: Homo sapiens, A498, 48 h; for CC50: read-out: LC50
# [26] = test system: NCI-H460; experiment: cells; conditions: Homo sapiens, NCI-H460, 48 h; for CC50: read-out: LC50
# [27] = test system: MOLT-4; experiment: cells; conditions: Homo sapiens, MOLT-4, 48 h; for CC50: read-out: LC50
# [28] = test system: CAKI-1; experiment: cells; conditions: Homo sapiens, CAKI-1, 48 h; for CC50: read-out: LC50
# [29] = test system: U251; experiment: cells; conditions: Homo sapiens, U-251, 48 h; for GI50: U251, 48 h; for CC50: read-out: LC50
# [30] = test system: HCT-116; experiment: cells; conditions: Homo sapiens, HCT-116, 48 h; for CC50: read-out: LC50
# [31] = test system: OVCAR-5; experiment: cells; conditions: Homo sapiens, OVCAR-5, 48 h; for CC50: read-out: LC50
# [32] = test system: SW-620; experiment: cells; conditions: Homo sapiens, SW-620, 48 h; for CC50: read-out: LC50
# [33] = Hemolytic activity, spectrophotometric; assay type: cell-based, human; conditions: human, human red blood cells (huRBC), 5% hematocrit, 200 μg/mL, 37 °C
# [34] = test system: KM12; experiment: cells; conditions: Homo sapiens, KM12, 48 h; for CC50: read-out: LC50
# [35] = test system: K-562; experiment: cells; conditions: Homo sapiens, K562, 48 h; for GI50: K-562, 48 h; for CC50: read-out: LC50
# [36] = test system: SF-268; experiment: cells; conditions: Homo sapiens, SF-268, 48 h; for CC50: read-out: LC50
smiles,measurement,setting,value
Nc1nc(N)c2c(n1)NC(c1ccccc1)CC(c1ccc(Nc3nc(NCCO)nc(Nc4ccc(Cl)cc4)n3)cc1)=N2 (centres unmarked) [33a],GI50,[1],0.95 µM
same,CC50,[1],> 100 µM
same,GI50,[2],1.77 µM
same,CC50,[2],6.28 µM
same,GI50,[3],1.42 µM
same,CC50,[3],6.74 µM
same,GI50,[4],1.63 µM
same,CC50,[4],5.8 µM
same,GI50,[5],1.38 µM
same,CC50,[5],5.87 µM
same,GI50,[6],1.52 µM
same,CC50,[6],7.29 µM
same,GI50,[7],1.57 µM
same,CC50,[7],5.63 µM
same,GI50,[8],1.38 µM
same,CC50,[8],5.6 µM
same,GI50,[9],1.79 µM
same,CC50,[9],6.09 µM
same,GI50,[10],1.95 µM
same,CC50,[10],9.76 µM
same,GI50,[11],2.84 µM
same,CC50,[11],> 100 µM
same,GI50,[12],1.76 µM
same,GI50,[13],1.73 µM
same,CC50,[13],5.64 µM
same,GI50,[14],17.7 µM
same,CC50,[14],57.9 µM
same,GI50,[15],1.56 µM
same,CC50,[15],6.29 µM
same,GI50,[16],1.59 µM
same,GI50,[17],1.63 µM
same,GI50,[18],1.75 µM
same,CC50,[18],6.94 µM
same,GI50,[19],1.64 µM
same,CC50,[19],6.12 µM
same,GI50,[20],1.74 µM
same,CC50,[20],6.07 µM
same,GI50,[21],1.68 µM
same,CC50,[21],5.72 µM
same,GI50,[22],1.87 µM
same,CC50,[22],9.83 µM
same,GI50,[23],1.42 µM
same,CC50,[23],5.21 µM
same,GI50,[24],1.54 µM
same,CC50,[24],5.66 µM
same,GI50,[25],1.54 µM
same,CC50,[25],5.96 µM
same,GI50,[26],1.85 µM
same,CC50,[26],6.51 µM
same,GI50,[27],< 0.01 µM
same,CC50,[27],> 100 µM
same,GI50,[28],2.3 µM
same,CC50,[28],24.8 µM
same,GI50,[29],1.53 µM
same,CC50,[29],5.84 µM
same,GI50,[30],1.51 µM
same,CC50,[30],5.33 µM
same,GI50,[31],1.94 µM
same,CC50,[31],7.25 µM
same,GI50,[32],1.87 µM
same,CC50,[32],6.48 µM
same,"hemolysis at 24 h, 200 µg/mL",[33],8%
same,GI50,[34],1.9 µM
same,CC50,[34],6.61 µM
same,GI50,[35],1.01 µM
same,CC50,[35],> 100 µM
same,GI50,[36],1.87 µM
Cc1ccc(C2CC(c3ccc(Nc4nc(NCCO)nc(Nc5ccc(Cl)cc5)n4)cc3)=Nc3c(N)nc(N)nc3N2)cc1 (centres unmarked) [33b],GI50,[1],1.67 µM
same,CC50,[1],> 100 µM
same,GI50,[2],1.78 µM
same,CC50,[2],7.14 µM
same,GI50,[3],1.3 µM
same,CC50,[3],6.3 µM
same,GI50,[4],1.64 µM
same,CC50,[4],5.7 µM
same,GI50,[5],1.48 µM
same,CC50,[5],5.87 µM
same,GI50,[6],1.67 µM
same,CC50,[6],8.01 µM
same,GI50,[7],1.63 µM
same,CC50,[7],5.63 µM
same,GI50,[8],1.81 µM
same,CC50,[8],6.4 µM
same,GI50,[9],1.67 µM
same,CC50,[9],6.09 µM
same,GI50,[10],1.72 µM
same,CC50,[10],5.56 µM
same,GI50,[11],1.74 µM
same,CC50,[11],6.8 µM
same,GI50,[12],1.7 µM
same,CC50,[12]; read-out: LC50,6.69 µM
same,GI50,[13],1.77 µM
same,CC50,[13],5.65 µM
same,GI50,[14],2.69 µM
same,CC50,[14],25.6 µM
same,GI50,[15],1.65 µM
same,CC50,[15],5.98 µM
same,GI50,[16],1.74 µM
same,CC50,[16],7.43 µM
same,GI50,[17],1.45 µM
same,GI50,[18],1.67 µM
same,CC50,[18],6.37 µM
same,GI50,[19],1.55 µM
same,CC50,[19],5.71 µM
same,GI50,[20],1.68 µM
same,CC50,[20],6.08 µM
same,GI50,[21],1.55 µM
same,CC50,[21],5.56 µM
same,GI50,[22],1.64 µM
same,CC50,[22],5.51 µM
same,GI50,[23],1.56 µM
same,CC50,[23],5.43 µM
same,GI50,[24],1.65 µM
same,CC50,[24],5.69 µM
same,GI50,[25],3.85 µM
same,CC50,[25],42 µM
same,GI50,[26],1.8 µM
same,CC50,[26],6.41 µM
same,GI50,[27],1.38 µM
same,CC50,[27],> 100 µM
same,GI50,[28],1.64 µM
same,CC50,[28],5.73 µM
same,GI50,[29],1.6 µM
same,CC50,[29],5.65 µM
same,GI50,[30],1.62 µM
same,CC50,[30],5.45 µM
same,GI50,[31],1.62 µM
same,CC50,[31],5.59 µM
same,GI50,[32],1.79 µM
same,CC50,[32],6.12 µM
same,GI50,[34],1.97 µM
same,CC50,[34],7.54 µM
same,GI50,[35],1.34 µM
same,CC50,[35],24.9 µM
same,GI50,[36],1.81 µM
same,CC50,[36],7.35 µM
Nc1nc(N)c2c(n1)NC(c1ccc(Cl)cc1)CC(c1ccc(Nc3nc(NCCO)nc(Nc4ccc(Cl)cc4)n3)cc1)=N2 (centres unmarked) [33e],GI50,[1],1.14 µM
same,CC50,[1],> 100 µM
same,GI50,[2],1.7 µM
same,CC50,[2],7.96 µM
same,GI50,[3],1.29 µM
same,CC50,[3],7.54 µM
same,GI50,[4],1.55 µM
same,CC50,[4],5.96 µM
same,GI50,[5],1.29 µM
same,CC50,[5],6.09 µM
same,GI50,[6],1.71 µM
same,CC50,[6],54.6 µM
same,GI50,[7],1.73 µM
same,CC50,[7],7.76 µM
same,GI50,[8],1.45 µM
same,CC50,[8],5.53 µM
same,GI50,[9],1.51 µM
same,CC50,[9],8.55 µM
same,GI50,[10],4.69 µM
same,CC50,[10],> 100 µM
same,GI50,[11],4.12 µM
same,CC50,[11],> 100 µM
same,GI50,[12],1.75 µM
same,GI50,[13],1.73 µM
same,CC50,[13],5.61 µM
same,GI50,[14],14.8 µM
same,CC50,[14],58.3 µM
same,GI50,[15],1.71 µM
same,CC50,[15],7.46 µM
same,GI50,[16],1.93 µM
same,CC50,[16],> 100 µM
same,GI50,[17],1.54 µM
same,CC50,[17]; read-out: LC50,5.73 µM
same,GI50,[18],1.75 µM
same,CC50,[18],8.82 µM
same,GI50,[19],2.01 µM
same,CC50,[19],28.7 µM
same,GI50,[20],2.83 µM
same,CC50,[20],34.5 µM
same,GI50,[21],1.44 µM
same,CC50,[21],5.36 µM
same,GI50,[22],3.1 µM
same,CC50,[22],> 100 µM
same,GI50,[23],1.48 µM
same,CC50,[23],5.3 µM
same,GI50,[24],1.45 µM
same,CC50,[24],5.63 µM
same,GI50,[25],5.9 µM
same,CC50,[25],44.5 µM
same,GI50,[26],1.72 µM
same,CC50,[26],6.42 µM
same,GI50,[27],0.79 µM
same,CC50,[27],> 100 µM
same,GI50,[28],5.36 µM
same,CC50,[28],> 100 µM
same,GI50,[29],1.47 µM
same,CC50,[29],5.81 µM
same,GI50,[30],1.4 µM
same,CC50,[30],5.19 µM
same,GI50,[31],4.48 µM
same,CC50,[31],74 µM
same,GI50,[32],1.62 µM
same,CC50,[32],6.72 µM
same,"hemolysis at 24 h, 200 µg/mL",[33],1.2%
same,GI50,[34],3.18 µM
same,CC50,[34],> 100 µM
same,GI50,[35],0.71 µM
same,CC50,[35],> 100 µM
same,GI50,[36],4.14 µM
same,CC50,[36],> 100 µM
